Test results from patent publication US8822503B2, “2-pyridone compounds” (Taisho Pharmaceutical Co., Ltd, priority 2009, dated 2014).

Biological target: T1, human liver GK (Homo sapiens, UniProt P35557)
T1 construct: GST (glutathione S-transferase) (N); made in house; host or cells: E. coli
T1 sequence (P35557 1-466 isoform P35557-2): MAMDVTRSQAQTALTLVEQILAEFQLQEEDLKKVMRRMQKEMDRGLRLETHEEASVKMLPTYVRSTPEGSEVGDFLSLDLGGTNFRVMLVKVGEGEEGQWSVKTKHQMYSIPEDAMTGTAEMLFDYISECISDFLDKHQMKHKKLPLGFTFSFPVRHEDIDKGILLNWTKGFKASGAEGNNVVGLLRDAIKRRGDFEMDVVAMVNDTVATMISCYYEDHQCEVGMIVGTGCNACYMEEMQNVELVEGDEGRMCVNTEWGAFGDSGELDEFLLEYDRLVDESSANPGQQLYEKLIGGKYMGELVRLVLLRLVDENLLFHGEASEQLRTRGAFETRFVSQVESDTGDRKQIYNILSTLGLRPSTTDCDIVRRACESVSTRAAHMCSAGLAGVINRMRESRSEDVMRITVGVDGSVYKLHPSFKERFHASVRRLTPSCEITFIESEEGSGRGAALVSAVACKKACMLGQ
Test: GK activation test
Type: biochemical
Details: test compound concentration needed to activate 50% of maximum activation ability; 4 mM 14C-labeled glucose, 2 mM ATP, room temperature, 20 minutes
Outline: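 GST-tagged human liver GK from E. coli (0.24 μg/well) with 4 mM 14C-glucose, 2 mM ATP in Hepes-KOH pH 7.1, KCl, MgCl2, DTT, 1% DMSO, 20 min room temperature. Labeled glucose 6-phosphate captured on anion resin, eluted and counted. EC50 = concentration giving half of maximal activation.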

`CCc1ccc(/C(=C/[C@H]2CCC(=O)C2)c2ccc(S(C)(=O)=O)c(Cl)c2)[nH]c1=O` [Example 1-70, 6-{(E)-1-[3-Chloro-4-(methylsulfonyl)phenyl]-2-[(1S)-3-oxocyclopentyl]ethenyl}-3-ethylpyridin-2(1H)-one] was tested. Which EC50 did it give?
Its EC50 is 10 to 500 nM.

For `CSc1ccc(/C(=C\[C@H]2CCC(=O)C2)c2ccc(C3CC3)c(=O)[nH]2)cc1Cl` [Example 1-71, 6-{(E)-1-[3-Chloro-4-(methylsulfanyl)phenyl]-2-[(1S)-3-oxocyclopentyl]ethenyl}-3-cyclopropylpyridin-2(1H)-one], which EC50 is on record?
Its EC50 is 10 to 500 nM.

With `CS(=O)(=O)c1ccc(/C(=C\[C@H]2CCC(=O)C2)c2ccc(C3CC3)c(=O)[nH]2)cc1Cl` [Example 1-72, 6-{(E)-1-[3-Chloro-4-(methylsulfonyl)phenyl]-2-[(1S)-3-oxocyclopentyl]ethenyl}-3-cyclopropylpyridin-2(1H)-one] as the compound, how does the EC50 read?
The EC50 was 10 to 500 nM.

With `Cc1ccc(/C(=C/[C@H]2CCC(=O)C2)c2ccc(SCCCO)c(Cl)c2)[nH]c1=O` [Example 1-73, 6-{(E)-1-{3-Chloro-4-[(3-hydroxypropyl)sulfanyl]phenyl}-2-[(1S)-3-oxocyclopentyl]ethenyl}-3-methylpyridin-2(1H)-one] as the compound, how does the EC50 read?
Its EC50 is 10 to 500 nM.

`Cc1ccc(/C(=C/[C@H]2CCC(=O)C2)c2ccc(S(=O)(=O)CCCO)c(Cl)c2)[nH]c1=O` [Example 1-74, 6-{(E)-1-{3-Chloro-4-[(3-hydroxypropyl)sulfonyl]phenyl}-2-[(1S)-3-oxocyclopentyl]ethenyl}-3-methylpyridin-2(1H)-one] was tested. Which EC50 did it give?
Its EC50 is 500 to 3000 nM.

Which EC50 does the source give for `CCc1ccc(/C(=C/[C@H]2CCC(=O)C2)c2ccc(SCCCO)c(Cl)c2)[nH]c1=O` [Example 1-75, 6-{(E)-1-{3-Chloro-4-[(3-hydroxypropyl)sulfanyl]phenyl}-2-[(1S)-3-oxocyclopentyl]ethenyl}-3-ethylpyridin-2(1H)-one] here?
Its EC50 is 10 to 500 nM.

With `CCc1ccc(/C(=C/[C@H]2CCC(=O)C2)c2ccc(S(=O)(=O)CCCO)c(Cl)c2)[nH]c1=O` [Example 1-76, 6-{(E)-1-{3-Chloro-4-[(3-hydroxypropyl)sulfonyl]phenyl}-2-[(1S)-3-oxocyclopentyl]ethenyl}-3-ethylpyridin-2(1H)-one] as the compound, how does the EC50 read?
The EC50 was 10 to 500 nM.

`CCc1ccc(/C(=C/[C@H]2CCC(=O)C2)c2ccc(SCCCN(CC)CC)c(Cl)c2)[nH]c1=O` [Example 1-77, 6-{(E)-1-(3-Chloro-4-{[3-(diethylamino)propyl]sulfanyl}phenyl)-2-[(1S)-3-oxocyclopentyl]ethenyl}-3-ethylpyridin-2(1H)-one] was tested. Which EC50 did it give?
The EC50 was 10 to 500 nM.

For `CCc1ccc(/C(=C/[C@H]2CCC(=O)C2)c2ccc(S(=O)(=O)CCCN(CC)CC)c(Cl)c2)[nH]c1=O` [Example 1-78, 6-{(E)-1-(3-Chloro-4-{[3-(diethylamino)propyl]sulfonyl}phenyl)-2-[(1S)-3-oxocyclopentyl]ethenyl}-3-ethylpyridin-2(1H)-one], which EC50 is on record?
Its EC50 is 10 to 500 nM.

For `CCN(CC)CCCOc1ccc(/C(=C\[C@H]2CCC(=O)C2)c2ccc(C3CC3)c(=O)[nH]2)cc1Cl` [Example 1-79, 6-{(E)-1-{3-Chloro-4-[3-(diethylamino)propoxy]phenyl}-2-[(1S)-3-oxocyclopentyl]ethenyl}-3-cyclopropylpyridin-2(1H)-one], which EC50 is on record?
Its EC50 is 10 to 500 nM.

For `CCN(CC)CCCCOc1ccc(/C(=C\[C@H]2CCC(=O)C2)c2ccc(C3CC3)c(=O)[nH]2)cc1Cl` [Example 1-80, 6-{(E)-1-{3-Chloro-4-[4-(diethylamino)butoxy]phenyl}-2-[(1S)-3-oxocyclopentyl]ethenyl}-3-cyclopropylpyridin-2(1H)-one], which EC50 is on record?
Its EC50 is 10 to 500 nM.

For `O=C1CC[C@H](/C=C(\c2ccc(OCCCO)c(Cl)c2)c2ccc(C(F)(F)F)c(=O)[nH]2)C1` [Example 1-81, 6-{(E)-1-[3-Chloro-4-(3-hydroxypropoxy)phenyl]-2-[(1S)-3-oxocyclopentyl]ethenyl}-3-(trifluoromethyl)pyridin-2(1H)-one], which EC50 is on record?
Its EC50 is 500 to 3000 nM.
